Data set [1] relates to Fusarium graminearum, Syn. Gibberella zeae. Briefly: whole plant or invertebrate. Type of data set: in vivo. The conditions noted are these: in Triticum aestivum, read-out: inhibition (preventative fungicidal activity).
In a further data set the test system is Fusarium culmorum. Kind of data set: whole plant or invertebrate. To be noted: in Triticum aestivum, read-out: inhibition (preventative fungicidal activity). Type of data set: in vivo.
A further data set concerns Pyrenophora teres. Briefly: Action against Pyrenophora teres (net blotch), barley leaf segments, preventive. To be noted: foliar, 60 ppm active ingredient, sprayed before inoculation, assessed 4 dpi, read-out: inhibition (preventive fungicidal activity). Type of data set: in vivo. As to the method: Barley leaf segments are placed on agar in multiwell plates (24-well format) and sprayed with test solutions (60 ppm active ingredient). After drying, the leaf disks are inoculated with a spore suspension of the fungus. After appropriate incubation the activity of a compound is assessed 4 dpi (days after inoculation) as preventive fungicidal activity.

The subject of data set [2] is Monographella nivalis (Microdochium nivale). Briefly: Action against Monographella nivalis/liquid culture (foot rot cereals). Type of data set: cell-based. To be noted: liquid culture (PDB), 200 ppm active ingredient, 24° C., photometrically after 4-6 days. As to the method:
Conidia of the fungus from cryogenic storage are directly mixed into nutrient broth (PDB potato dextrose broth). After placing a (DMSO) solution of the test compounds (200 ppm active ingredient) into a microtiter plate (96-well format) the nutrient broth containing the fungal spores is added. The test plates are incubated at 24° C. and the inhibition of growth is measured photometrically after 4-6 days.

Data set [3] has as its system Phaeosphaeria nodorum (Septoria nodorum). Briefly: Action against Phaeosphaeria nodorum/wheat/leaf disc preventative (glume blotch). Type of data set: in vivo. To be noted: wheat leaf segments, 60 ppm active ingredient, sprayed before inoculation, assessed 4 dpi. How it is done:
Wheat leaf segments are placed on agar in a multiwell plate (24-well format) and sprayed with test solutions (60 ppm active ingredient). After drying, the leaf disks are inoculated with a spore suspension of the fungus. After appropriate incubation the activity of a compound is assessed 4 dpi (days after inoculation) as preventive fungicidal activity.

The test system of the next data set is Puccinia recondita. Kind of data set: Action against Puccinia recondita/wheat/leaf disc curative (brown rust). Type of data set: in vivo. The conditions noted are these: wheat leaf segments, 200 ppm active ingredient, applied one day after inoculation, assessed 8 dpi. The source says:
Wheat leaf segments are placed on agar in multiwell plates (24-well format). The leaf disks are then inoculated with a spore suspension of the fungus. One day after inoculation the test solution is applied (200 ppm active ingredient).

Where only a bound is given, the exact number is not on record here.

On to `CON(C(=O)c1cn(C)nc1C(F)F)C(C)Cc1sc2ccc(Cl)cc2c1Cl` (centres unmarked) [Compound 1.001, 3-Difluoromethyl-1-methyl-1H-pyrazole-4-carboxylic acid [2-(3,5-dichlorobenzo[b]thiophen-2-yl)-1-methyl-ethyl]methoxyamide], for which the melting point (usually the temperature, or range, at which the solid turns liquid) is 129 to 131 °C. Besides, the inhibition (in general, the share of the control response that was lost under treatment) at 60 ppm in data set [1] was at least 80%. Also, in the data set on Fusarium culmorum, the inhibition at 60 ppm is at least 80%. Further, the inhibition at 60 ppm in the data set with Pyrenophora teres is at least 80%. Turning to `CON(C(=O)c1cn(C)nc1C(F)F)C(C)Cc1sc2cc(Cl)ccc2c1Cl` (centres unmarked) [Compound 1.002], in data set [2], the inhibition of growth (as a rule, the percentage by which the read-out fell short of the control) was 80%. Moreover, the “inhibition (preventive fungicidal activity)” value in data set [3] came to 80%. On to `CON(C(=O)c1cn(C)nc1C(F)F)C(C)Cc1sc2ccc(Br)cc2c1Cl` (centres unmarked) [Compound 1.006], for which the inhibition of growth in data set [2] is on record as 80%. The “inhibition (preventive fungicidal activity)” value in data set [3] came to 80%. Also, in the data set with Puccinia recondita, the “inhibition (curative fungicidal activity)” value worked out at 80%. `CC(Cc1sc2ccc(Cl)cc2c1Cl)N(O)C(=O)c1cn(C)nc1C(F)F` (centres unmarked) [Compound 1.010]: the inhibition of growth in data set [2] is given as 80%.

For `COC(c1sc2cc(Cl)ccc2c1Cl)C(C)N(OC)C(=O)c1cn(C)nc1C(F)F` (centres unmarked) [Compound 1.015], the inhibition of growth in data set [2] is given as 80%. In addition, the “inhibition (preventive fungicidal activity)” value in data set [3] is given as 80%.

As to `COC(c1sc2ccc(Br)cc2c1Cl)C(C)N(OC)C(=O)c1cn(C)nc1C(F)F` (centres unmarked) [Compound 1.016], in data set [2], the inhibition of growth came out at 80%. Consider `CON(C(=O)c1cn(C)nc1C(F)(F)F)C(C)Cc1sc2cc(Cl)ccc2c1Cl` (centres unmarked) [Compound 2.002], for which the inhibition of growth in data set [2] is 80%. In addition, the “inhibition (preventive fungicidal activity)” value in data set [3] came out at 80%.

The compound `COC(c1sc2cc(Cl)ccc2c1Cl)C(C)N(OC)C(=O)c1cn(C)nc1C(F)(F)F` (centres unmarked) [Compound 2.015] registered an inhibition of growth in data set [2] of 80%. Consider `CON(C(=O)c1c(C)nn(C)c1F)C(C)Cc1sc2cc(Cl)ccc2c1Cl` (centres unmarked) [Compound 3.002], for which the “inhibition (preventive fungicidal activity)” value in data set [3] came out at 80%.
